According to patent US20240109917A1 (ACTELION PHARMACEUTICALS LTD, priority 2020, published 2024):

Columns and labels:
[1] = target: Tb-labeled inactive PDGFRβ (Homo sapiens (Human), UniProt P09619); test: PDGFRβ LanthaScreen Assay; format: binding; conditions: read-out: PDGFR Lantha IC50
[2] = target: VEGFR2, unphosphorylated (Homo sapiens (Human), UniProt P35968); test: VEGFR ADP GLO Assay; format: biochemical
[3] = target: His6-TEV-PDGFRβ (557-1016) (Homo sapiens (Human), UniProt P09619); test: PDGFRβ HTRF Assay; format: biochemical; conditions: read-out: PDGFR HTRF IC50
Chain of His6-TEV-PDGFRβ (557-1016) (P09619 557-1016): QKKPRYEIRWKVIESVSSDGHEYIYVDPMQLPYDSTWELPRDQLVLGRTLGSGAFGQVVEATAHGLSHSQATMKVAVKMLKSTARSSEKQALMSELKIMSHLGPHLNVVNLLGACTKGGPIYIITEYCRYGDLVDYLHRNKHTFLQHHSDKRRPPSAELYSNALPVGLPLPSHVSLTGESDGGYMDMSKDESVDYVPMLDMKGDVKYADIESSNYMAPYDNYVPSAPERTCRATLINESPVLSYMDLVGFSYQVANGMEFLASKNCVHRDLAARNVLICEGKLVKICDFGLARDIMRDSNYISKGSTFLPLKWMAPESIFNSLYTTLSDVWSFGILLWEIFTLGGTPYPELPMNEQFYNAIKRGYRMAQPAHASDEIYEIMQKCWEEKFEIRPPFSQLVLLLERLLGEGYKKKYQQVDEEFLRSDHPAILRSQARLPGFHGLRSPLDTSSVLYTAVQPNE
Method in brief: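 HTRF KinEASE-TK readout (665/620 nm ratio) of TK-biotin substrate phosphorylation by His-tagged PDGFRβ kinase domain. Enzyme and inhibitor preincubated 30 min, then ATP/substrate added for 3 h at room temperature before 60 min EDTA quench/detection.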

Chain of Tb-labeled inactive PDGFRβ (P09619 33-1106): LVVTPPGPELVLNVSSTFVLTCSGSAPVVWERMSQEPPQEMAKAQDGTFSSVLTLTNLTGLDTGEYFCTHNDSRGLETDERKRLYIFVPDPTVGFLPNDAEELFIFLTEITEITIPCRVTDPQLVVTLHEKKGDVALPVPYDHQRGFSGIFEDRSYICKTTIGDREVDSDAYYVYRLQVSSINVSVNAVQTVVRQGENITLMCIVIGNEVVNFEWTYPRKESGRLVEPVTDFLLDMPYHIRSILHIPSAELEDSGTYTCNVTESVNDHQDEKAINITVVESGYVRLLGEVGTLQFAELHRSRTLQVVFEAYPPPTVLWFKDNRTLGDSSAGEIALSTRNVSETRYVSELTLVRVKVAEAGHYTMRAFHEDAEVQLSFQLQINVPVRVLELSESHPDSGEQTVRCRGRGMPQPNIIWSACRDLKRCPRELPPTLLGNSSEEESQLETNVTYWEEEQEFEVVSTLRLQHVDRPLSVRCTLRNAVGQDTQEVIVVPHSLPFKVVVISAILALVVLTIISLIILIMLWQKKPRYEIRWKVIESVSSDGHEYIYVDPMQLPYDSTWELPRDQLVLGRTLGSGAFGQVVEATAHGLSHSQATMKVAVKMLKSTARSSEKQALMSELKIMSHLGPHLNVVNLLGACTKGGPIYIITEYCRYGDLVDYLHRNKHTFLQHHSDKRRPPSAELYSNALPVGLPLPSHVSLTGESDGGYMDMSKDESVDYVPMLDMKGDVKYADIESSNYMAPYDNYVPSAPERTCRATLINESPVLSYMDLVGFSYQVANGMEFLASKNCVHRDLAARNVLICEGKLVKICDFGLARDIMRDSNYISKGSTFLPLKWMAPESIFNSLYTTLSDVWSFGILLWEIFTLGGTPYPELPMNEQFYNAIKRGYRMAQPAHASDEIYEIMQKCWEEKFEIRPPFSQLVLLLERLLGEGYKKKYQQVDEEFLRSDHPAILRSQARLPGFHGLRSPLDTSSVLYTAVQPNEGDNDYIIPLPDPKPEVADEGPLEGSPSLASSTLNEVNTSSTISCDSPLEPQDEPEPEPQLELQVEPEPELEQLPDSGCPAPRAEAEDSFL
Chain of VEGFR2, unphosphorylated (P35968 20-1356): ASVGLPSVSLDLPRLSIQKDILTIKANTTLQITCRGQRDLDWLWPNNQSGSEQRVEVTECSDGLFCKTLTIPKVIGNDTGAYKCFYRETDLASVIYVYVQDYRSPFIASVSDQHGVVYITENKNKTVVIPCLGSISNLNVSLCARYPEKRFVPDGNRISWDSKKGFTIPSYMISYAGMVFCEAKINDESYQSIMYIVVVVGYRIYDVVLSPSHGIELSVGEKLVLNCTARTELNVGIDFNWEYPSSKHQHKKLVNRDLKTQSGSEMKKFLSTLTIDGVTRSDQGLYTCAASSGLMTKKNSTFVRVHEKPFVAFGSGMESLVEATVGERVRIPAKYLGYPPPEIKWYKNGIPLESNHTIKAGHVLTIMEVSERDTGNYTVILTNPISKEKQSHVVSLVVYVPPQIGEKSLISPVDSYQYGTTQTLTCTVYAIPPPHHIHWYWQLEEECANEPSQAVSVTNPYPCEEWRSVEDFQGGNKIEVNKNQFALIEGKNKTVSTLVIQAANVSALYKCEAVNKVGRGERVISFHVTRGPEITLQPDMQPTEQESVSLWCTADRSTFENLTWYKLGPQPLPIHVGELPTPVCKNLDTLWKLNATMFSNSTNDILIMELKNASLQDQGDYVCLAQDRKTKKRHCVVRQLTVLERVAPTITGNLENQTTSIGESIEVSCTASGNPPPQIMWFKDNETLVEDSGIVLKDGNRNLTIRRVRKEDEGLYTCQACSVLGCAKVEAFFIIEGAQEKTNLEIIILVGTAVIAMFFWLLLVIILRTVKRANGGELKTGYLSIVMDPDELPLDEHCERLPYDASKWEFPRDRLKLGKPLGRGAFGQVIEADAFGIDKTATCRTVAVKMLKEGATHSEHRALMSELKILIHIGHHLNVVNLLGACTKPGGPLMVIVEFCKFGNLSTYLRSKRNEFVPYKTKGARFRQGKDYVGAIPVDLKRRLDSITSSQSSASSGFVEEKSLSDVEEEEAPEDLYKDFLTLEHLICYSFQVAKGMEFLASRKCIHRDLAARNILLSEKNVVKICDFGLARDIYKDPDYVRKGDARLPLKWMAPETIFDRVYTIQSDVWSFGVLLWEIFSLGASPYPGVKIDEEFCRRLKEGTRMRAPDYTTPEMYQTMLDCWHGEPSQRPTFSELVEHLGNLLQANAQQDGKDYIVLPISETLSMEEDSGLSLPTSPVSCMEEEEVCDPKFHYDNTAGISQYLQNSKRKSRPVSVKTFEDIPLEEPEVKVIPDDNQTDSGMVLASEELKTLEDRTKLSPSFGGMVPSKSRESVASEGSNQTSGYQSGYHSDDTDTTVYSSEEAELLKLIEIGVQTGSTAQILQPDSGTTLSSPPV

COc1ncccc1-c1cn2ncc(C(=O)Nc3cc(NC(=O)OCC(C)N4CCCC4)cnc3C)c2s1 (stereo not drawn) [Example 255, 2-(pyrrolidin-1-yl)propyl (5-(2-(2-methoxypyridin-3-yl)pyrazolo[5,1-b]thiazole-7-carboxamido)-6-methylpyridin-3-yl)carbamate]
IC50 [1]: 1.9 nM | IC50 [2]: > 7.5 µM | IC50 [3]: 0.2 nM
